Key:
activated ERK2 = activated ERK2 (Homo sapiens, UniProt P28482); test: ERK2 inhibition spectrophotometric coupled-enzyme assay; assay type: biochemical; conditions: 10 nM activated ERK2, 65 μM ATP, 30° C., pH 7.5; read-out: ERK2 Inhibitory Activity (Ki class)
Procedure: Compounds are assayed for the inhibition of ERK2 by a spectrophotometric coupled-enzyme assay (Fox et al (1998) Protein Sci 7, 2249). In this assay, a fixed concentration of activated ERK2 (10 nM) is incubated with various concentrations of the compound in DMSO (2.5%) for 10 min. at 30° C. in 0.1 M HEPES buffer, pH 7.5, containing 10 mM MgCl2, 2.5 mM phosphoenolpyruvate, 200 μM NADH, 150 μg/mL pyruvate kinase, 50 μg/mL lactate dehydrogenase, and 200 μM erktide peptide. The reaction is initiated by the addition of 65 μM ATP. The rate of decrease of absorbance at 340 nm is monitored, which indicates the extent of uninhibited enzyme present in the assay. The IC50 is evaluated from the rate data as a function of inhibitor concentration.
The compound numbers correspond to the compound numbers in Tables 1 and 2.

AKT = AKT inhibition standard coupled enzyme assay; assay type: biochemical; conditions: screened at 30 μM compound, 45 nM AKT, 170 μM ATP; compounds with greater than 50% inhibition titrated
Procedure: Compounds were screened for their ability to inhibit AKT using a standard coupled enzyme assay (Fox et al., Protein Sci., (1998) 7, 2249). Assays were carried out in a mixture of 100 mM HEPES 7.5, 10 mM MgCl2, 25 mM NaCl, 1 mM DTT and 1.5% DMSO. Final substrate concentrations in the assay were 170 μM ATP (Sigma Chemicals) and 200 μM peptide (RPRAATF, American Peptide, Sunnyvale, Calif.). Assays were carried out at 30° C. and 45 nM AKT. Final concentrations of the components of the coupled enzyme system were 2.5 mM phosphoenolpyruvate, 300 μM NADH, 30 μg/ML pyruvate kinase and 10 μg/ml lactate dehydrogenase.
An assay stock buffer solution was prepared containing all of the reagents listed above, with the exception of AKT, DTT, and the test compound of interest. 56 μl of the stock solution was placed in a 384 well plate followed by addition of 1 μl of 2 mM DMSO stock containing the test compound (final compound concentration 30 μM). The plate was preincubated for about 10 minutes at 30° C. and the reaction initiated by addition of 10 μl of enzyme (final concentration 45 nM) and 1 mM DTT. Rates of reaction were obtained using a BioRad Ultramark plate reader (Hercules, Calif.) over a 5 minute read time at 30° C.

[1] = system: Colon cancer cells (HT-29 cell line); test: ERK inhibition cell proliferation assay (3H-thymidine uptake); assay type: cell-based; conditions: Homo sapiens, HT-29 cells, 3 days incubation
Procedure: Compounds may be assayed for the inhibition of ERK2 by a cell proliferation assay. In this assay, a complete media is prepared by adding 10% fetal bovine serum and penicillin/streptomycin solution to RPMI 1640 medium (JRH Biosciences). Colon cancer cells (HT-29 cell line) are added to each of 84 wells of a 96 well plate at a seeding density of 10,000 cells/well/150 μL. The cells are allowed to attach to the plate by incubating at 37° C. for 2 hours. A solution of test compound is prepared in complete media by serial dilution to obtain the following concentrations: 20 μM, 6.7 μM, 2.2 μM, 0.74 μM, 0.25 μM, and 0.08 μM. The test compound solution (50 μL) is added to each of 72 cell-containing wells. To the 12 remaining cell-containing wells, only complete media (200 μL) is added to form a control group in order to measure maximal proliferation. To the remaining 12 empty wells, complete media is added to form a vehicle control group in order to measure background. The plates are incubated at 37° C. for 3 days. A stock solution of ^3H-thymidine (1 mCi/mL, New England Nuclear, Boston, Mass.) is diluted to 20 μCi/mL in RPMI medium then 20 μL of this solution is added to each well. The plates are further incubated at 37° C. for 8 hours then harvested and analyzed for ^3H-thymidine uptake using a liquid scintillation counter.

Chain of activated ERK2 (P28482 whole entry): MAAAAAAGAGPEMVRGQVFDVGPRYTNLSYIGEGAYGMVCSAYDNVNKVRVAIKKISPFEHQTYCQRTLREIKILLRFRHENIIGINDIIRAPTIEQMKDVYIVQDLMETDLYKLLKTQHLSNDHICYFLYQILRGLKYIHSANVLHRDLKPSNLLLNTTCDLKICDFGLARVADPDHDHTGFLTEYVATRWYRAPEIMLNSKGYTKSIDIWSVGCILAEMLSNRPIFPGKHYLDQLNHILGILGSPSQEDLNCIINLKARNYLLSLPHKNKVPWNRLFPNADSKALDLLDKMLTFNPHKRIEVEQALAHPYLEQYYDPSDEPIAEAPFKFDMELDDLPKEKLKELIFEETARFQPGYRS

Row | Ki (activated ERK2) [µM] | inhibit AKT (AKT) | IC50 [1] [µM] | Structure (SMILES)
1 | < 1 |  |  | O=C(N[C@H](CO)c1ccc(F)c(Cl)c1)c1cc(-c2n[nH]cc2-c2ccc(CN(Cc3cc[n+]([O-])cc3)Cc3cc[n+](O)cc3)c(Cl)c2)c[nH]1 [II-9, 4-[4-(4-{[Bis-(1-oxy-pyridin-4-ylmethyl)-amino]-methyl}-3-chloro-phenyl)-1H-pyrazol-3-yl]-1H-pyrrole-2-carboxylic acid [1-(3-chloro-4-fluoro-phenyl)-2-hydroxy-ethyl]-amide]
2 | < 1 |  |  | CC(=O)N1C[C@H](O)C[C@H]1C(=O)NCc1ccc(-c2c[nH]nc2-c2c[nH]c(C(=O)N[C@H](CO)c3ccc(F)c(Cl)c3)c2)cc1Cl (stereo in doubt) [II-2, 4-[4-(4-{[(1-Acetyl-4-hydroxy-pyrrolidine-2-carbonyl)-amino]-methyl}-3-chloro-phenyl)-1H-pyrazol-3-yl]-1H-pyrrole-2-carboxylic acid [1-(3-chloro-4-fluoro-phenyl)-2-hydroxy-ethyl]-amide]
3 | < 1 | inhibit AKT |  | O=C(N[C@H](CO)c1ccc(F)c(Cl)c1)c1cc(-c2n[nH]cc2-c2ccc(CNCc3cc[n+]([O-])cc3)c(Cl)c2)c[nH]1 [II-8]
4 | < 1 |  |  | CC(=O)N1CCC[C@@H]1C(=O)NCc1ccc(-c2cn[nH]c2-c2c[nH]c(C(=O)NC(CO)c3ccc(F)c(Cl)c3)c2)cc1Cl (some centres unmarked) [II-4]
5 | < 1 |  |  | CC(=O)N1CCC[C@H]1C(=O)NCc1ccc(-c2cn[nH]c2-c2c[nH]c(C(=O)NC(CO)c3ccc(F)c(Cl)c3)c2)cc1Cl (some centres unmarked) [II-3]
6 | < 1 | inhibit AKT | < 10 | O=C(N[C@H](CO)c1ccc(F)c(Cl)c1)c1cc(-c2n[nH]cc2-c2ccc(CN3CCOCC3)c(Cl)c2)c[nH]1 [II-6, 4-[4-(3-Chloro-4-morpholin-4-ylmethyl-phenyl)-1H-pyrazol-3-yl]-1H-pyrrole-2-carboxylic acid [1-(3-chloro-4-fluoro-phenyl)-2-hydroxy-ethyl]-amide]
7 | > 5 |  |  | O=C(NCc1ccccc1)c1cc(-c2[nH]ncc2-c2cccc(CN3CCOCC3)c2)c[nH]1 [II-10]
8 | < 1 |  |  | O=C(CCCCCNc1ccc([N+](=O)[O-])c2nonc12)NCc1ccc(-c2cn[nH]c2-c2c[nH]c(C(=O)N[C@H](CO)c3ccc(F)c(Cl)c3)c2)cc1Cl [II-5]
9 | < 1 |  |  | O=C(NCc1ccc(-c2cn[nH]c2-c2c[nH]c(C(=O)N[C@H](CO)c3ccc(F)c(Cl)c3)c2)cc1Cl)O[C@H]1CCOC1 [II-7]
10 | < 1 |  | < 10 | O=C(N[C@H](CO)c1ccccc1)c1cc(-c2[nH]ncc2-c2ccc(C(=O)N3CCOCC3)c(Cl)c2)c[nH]1 [II-1]

Reference: US7279476B2, “Pyrazole-derived kinase inhibitors and uses thereof” (Vertex Pharmaceuticals Incorporated, priority 2001, dated 2007)
